Earlier results as cited in patent US20250144159A1, “COMPOSITION COMPRISING A MIXTURE OF DHA AND/OR EPA AND A PHOSPHOLIPID OF PLANT ORIGIN” (POLARIS, priority 2022, published 2025).

Conditions: oral intake; compared with DHA in triglyceride (TG) form

| Structure (SMILES) | cerebral capture of DHA |
| --- | --- |
| CCC=CCC=CCC=CCC=CCC=CCC=CCCC(=O)OC(COC(C)=O)COP(=O)([O-])OCC[N+](C)(C)C (centres unmarked) [AceDoPC] | improves |
| CC/C=C\C/C=C\C/C=C\C/C=C\C/C=C\C/C=C\CCC(=O)OC(CO)COP(=O)([O-])OCC[N+](C)(C)C (centres unmarked) [lysoPC-DHA] | improves |
